Laboratory results published in a melting point compilation (Tetko et al.).

Row | SMILES | melting point [°C]
1 | Cc1nc2ccccc2c(C(=O)O)c1C(=O)O | 225 to 233
2 | CC(C)(C)OC(=O)N1CC(C(=O)O)C1 | 102
3 | CC(C(=O)O)P(=O)(O)O (centres undefined) | 120
4 | O=S(=O)(Cl)c1cc(Cl)ccc1Cl | 38
5 | CC(=O)c1cc(Cl)sc1Cl | 38
6 | CCCCCN=C(N)NNC=C1C=Nc2ccc(CO)cc21 | 155
7 | CCCCC(C#N)(Cn1ccnc1)c1ccccc1 (centres undefined) | 161
8 | COc1cc(F)ccc1C(=O)O | 134 to 136
9 | CC(=O)Nc1ccccc1/C=C/c1cc(/C=C/c2ccccc2)c([N+](=O)[O-])cc1[N+](=O)[O-] | 265
10 | Cc1ccc(S(=O)(=O)OCCOCCOCCOS(=O)(=O)c2ccc(C)cc2)cc1 | 80 to 82
11 | COc1ccc(C(=O)c2ccccc2F)cc1[N+](=O)[O-] | 133 to 139
12 | Brc1c(Br)c(Br)c2c(c1Br)Oc1c(Br)c(Br)c(Br)c(Br)c1O2 | 376
13 | C1CCC(CCCCCC2CCCCC2)CC1 | -13.6
14 | ClC=C(Cl)C(Cl)=CCl | -4
15 | O=C(O)C=Cc1cccc([N+](=O)[O-])c1 | 202 to 204
16 | O=C(O)c1cccc2c1OCC2 | 170 to 171
17 | COC(=O)c1cc(O)c(O)c(O)c1 | 262
18 | CC12CCC3C(=CCc4cc(O)ccc43)C1CCC2O (centres undefined) | 174
19 | CC(C)(Oc1ccc(C#N)cc1)C(=O)O | 117 to 120
20 | [O-][N+](=Nc1ccccc1)c1ccc(N=Nc2ccc([N+]([O-])=Nc3ccccc3)cc2)cc1 | 138 to 139
21 | Cn1c(=O)c(C(N)=NO)cn(-c2ccccc2)c1=O | 189 to 191
22 | OCC1OC(Oc2ccc(O)cc2)C(O)C(O)C1O (centres undefined) | 200
23 | CCCCCCC(=O)OCCCCC | -50
24 | CC(=O)c1ccc(C(C)=O)c([N+](=O)[O-])c1 | 46
25 | CC(=NOCc1cccc(C(=O)O)c1)c1ccc(Cl)cc1 | 154 to 157

Row | SMILES | melting point [°C]
26 | CC(=O)OC1=c2ccc([N+](=O)[O-])cc2=NC1=c1ccc(=C2N=c3cc([N+](=O)[O-])ccc3=C2OC(C)=O)cc1 | 280
27 | CCOC(=O)Nc1cccc([N+](=O)[O-])c1[N+](=O)[O-] | 102 to 103
28 | C=C1C(=O)C23C(OC(C)=O)CC4C5(C)CCCC4(C(=O)OC5)C2C(OC(C)=O)CC1C3OC(C)=O (centres undefined) | 235
29 | O=C=Nc1cccc2c(N=C=O)cccc12 | 130
30 | CC1=C(C#N)C(c2cccc([N+](=O)[O-])c2)C(C(=O)OCCN(C)C)=C(C)N1 (centres undefined) | 72 to 73
31 | COc1ccc(Cl)c(Cl)c1 | -8
32 | Cc1c(O)cccc1[N+](=O)[O-] | 150
33 | COc1cc([C@@H](O)[C@H](CO)Oc2c(OC)cccc2OC)cc(OC)c1O | 217
34 | CNc1ccc(NCCO)c2c1C(=O)c1ccccc1C2=O | 187
35 | O=C(N=C=S)c1ccccc1 | 128 to 131
36 | O=C(O)C(Cc1ccc([N+](=O)[O-])cc1)c1ccccc1 (centres undefined) | 152
37 | OC1C2CC3CC(C2)CC1C3 (centres undefined) | 301
38 | O=C1NN=C(C(F)(F)F)C1=NNc1cc(Cl)ccc1Cl | 214
39 | O=C(Nc1cc(C(F)(F)F)cc(C(F)(F)F)c1)c1cncc(Cl)n1 | 133
40 | O=Cc1cc(Br)ccc1O | 105
41 | O=C(O)CN(CC(=O)O)c1ccccc1 | 156 to 160
42 | CC1(C)OC(=O)C(=Cc2ccc(Cl)cc2Cl)C(=O)O1 | 156
43 | CC1(C)CCC(O)CC1 | 28 to 30
44 | CNCc1ccccc1Cn1cncn1 | 57 to 59
45 | Oc1c(F)ccc(F)c1F | 33.5
46 | NC(=NO)c1cccnc1 | 130 to 131
47 | Cc1onc(-c2c(Cl)cccc2Cl)c1C(=O)Cl | 92 to 95
48 | NC(=O)CC1(CC(=O)O)CCCCC1 | 140 to 145
49 | COc1ccc(-c2noc(C)c2C(=O)Cl)cc1 | 79 to 81
50 | CSc1nc2nc(SC)n(C)c2c(=O)n1-c1ccc(F)cc1 | 177 to 179

Other lines, results leading:

Row | melting point [°C] | SMILES
51 | 65 to 70 | CC(C)(C)OC(=O)C[C@H]1C[C@@H](CC#N)OC(C)(C)O1
52 | 55 | Cc1cc(C#N)ccc1F
53 | 91.5 | CC(C)(O)c1ccc(-c2ccccc2)cc1
54 | 109 | N#Cc1cnc2ccccc2c1
55 | 188 | COC(=O)c1cc(OCc2cc(COc3cc(C(=O)OC)cc(C(=O)OC)c3)cc(COc3cc(C(=O)OC)cc(C(=O)OC)c3)c2)cc(C(=O)OC)c1
56 | 93.5 | Nc1cccc(-c2cccc(N)c2)c1
57 | 119 | O=C(Oc1cccc2cccnc12)c1ccccc1
58 | 206 | CC1C(=O)CCCC1=O
59 | 47 | O=CCCc1ccccc1
60 | 39 | CCc1ccc(O)c(O)c1
61 | 131 to 132 | O=Cc1ccc(I)c(O)c1
62 | 176 | CSc1cc2c(c3c1CCOc1ccccc1-3)c(=O)n(-c1ccccc1)n2C
63 | 85 to 89 | CC(C)(C)NC[C@H](O)CO
64 | 267 to 277 | CC(=O)NC1CC=CCC(NC(C)=O)CC=CC1 (centres undefined)
65 | 134 | COc1ccc2cc([N+](=O)[O-])ccc2c1
66 | 260 | CC(=O)Nc1nc(O)c2nc[nH]c2n1
67 | 204 | Cc1cccc(C(=O)N(NC(=O)c2ccccc2)C(C)(C)C)c1C
68 | 260 | Cn1c(=O)c(C2=NNC(=O)C2=NNc2ccc(Br)cc2)c(O)c2ccccc21
69 | 205 to 207 | CC(=O)Nc1ccc(-c2ccc(F)cc2)cc1
70 | 89 | N#Cc1ccc(N)c(F)c1

Row | melting point [°C] | SMILES
71 | 49.5 | FC(F)(F)c1cccc(Br)n1
72 | 189 | O=[N+]([O-])c1c(O)cc(O)cc1O
73 | 73 to 74 | N#Cc1cc([N+](=O)[O-])ccc1F
74 | 180 | NS(=O)(=O)c1c(Cl)cc(Cl)cc1Cl
75 | 120 to 121 | COC(=O)c1cccc([N+](=O)[O-])c1NC(C)=O
76 | 147 | c1ccc(-c2cccc3cccc(-c4ccccc4)c23)cc1
77 | 281 | CC(=O)Nc1ccc(C#Cc2ccc(NC(C)=O)cc2)cc1
78 | 133 to 135 | O=C(CCc1ccc(O)cc1)ON1C(=O)CCC1=O
79 | 211 to 214 | c1ccc(-c2cc3ccccn3c2)cc1
80 | 83 to 84 | CC(C)(C)OC(=O)NCc1ccc(C=O)cc1
81 | 234 to 238 | Cc1nc2ccccc2n1CCCC(=O)O
82 | 264 to 266 | Cn1c(=O)cc(O)c2ccccc21
83 | 334 | O=[N+]([O-])c1ccc2c(c1)Cc1cc([N+](=O)[O-])ccc1-2
84 | 139 | N#CC(=Cc1ccccc1Cl)c1nc2ccccc2s1
85 | 147 | O=C(CCl)c1ccc(C(=O)C(Cl)Cl)cc1
86 | 209 to 213 | Nc1ccc(Cl)cc1C(=O)O
87 | 360 | O=C1OC(=O)C2C3C=CC(C12)C1C(=O)OC(=O)C31 (centres undefined)
88 | 97 to 100 | CC(C)C(=O)NN
89 | 163 | Nc1cc2c(cc1C=Cc1ccccc1)CC(c1ccccc1)N2 (centres undefined)
